Where two headings read alike, the source gives them in different places.
Assays:
[1] = pH 2.7, LogP, HPLC on reversed phase columns, pH 2.7, 0.1% formic acid in water / acetonitrile gradient
Method: Measurement of log P values was performed according EEC directive 79/831 Annex V.A8 by HPLC (High Performance Liquid Chromatography) on reversed phase columns with the following method:
Measurement of LC-MS was done at pH 2.7 with 0.1% formic acid in water and with acetonitrile (contains 0.1% formic acid) as eluent with a linear gradient from 10% acetonitrile to 95% acetonitrile.
Calibration was done with not branched alkan2-ones (with 3 to 16 carbon atoms) with known log P-values (measurement of log P values using retention times with linear interpolation between successive alkanones). lambda-maX-values were determined using UV-spectra from 200 nm to 400 nm and the peak values of the chromatographic signals.

Phytophthora infestans = assay: whole plant or invertebrate; format: in vivo; details: in Solanum lycopersicum, 120 h, read-out: % efficacy
[2] = compounds of formula (V), Table 2

## CCCCC(=O)Nc1cccc(CON=C(c2ccccc2)c2nc(=O)on2C)n1 [Example 12]
[1]
  chromatographic logP: 2.9
Phytophthora infestans
  pest or weed control at 500 ppm: 100%

## CCCCCC(=O)Nc1cccc(CON=C(c2cccc(C)c2)c2nc(=O)on2C)n1 [Example 59]
[1]
  chromatographic logP: 3.58
Phytophthora infestans
  pest or weed control at 500 ppm: 90%

## Cn1oc(=O)nc1C(=NOCc1cccc(NC(=O)OC2CCCCC2)n1)c1cccc(F)c1 [Example 33]
[1]
  chromatographic logP: 3.92
Phytophthora infestans
  pest or weed control at 500 ppm: 100%

## O=C(Cc1ccccc1)Nc1cccc(CON=C(c2cccc(F)c2)c2nc(=O)o[nH]2)n1 [Example 76]
[1]
  chromatographic logP: 3.04
Phytophthora infestans
  pest or weed control at 500 ppm: 90%

## Cc1ccc(C(=O)Nc2cccc(CON=C(c3cccc(C)c3)c3nc(=O)on3C)n2)cc1 [Example 80]
[1]
  chromatographic logP: 3.53
Phytophthora infestans
  pest or weed control at 500 ppm: 80%

## Cc1cccc(C(=NOCc2cccc(NC(=O)C(C)(C)C)n2)c2nc(=O)on2C)c1 [Example 57]
[1]
  chromatographic logP: 3.17
Phytophthora infestans
  pest or weed control at 500 ppm: 75%

## COc1cccc(C(=NOCc2cccc(NC(=O)OC3CCCCC3)n2)c2nc(=O)on2C)c1 [Example 28]
[1]
  chromatographic logP: 3.85
Phytophthora infestans
  pest or weed control at 500 ppm: 78%

## CCCCSC(=S)Nc1cccc(CON=C(c2ccccc2)c2nc(=O)on2C)n1 [Example 38]
[1]
  chromatographic logP: 4.15
Phytophthora infestans
  pest or weed control at 500 ppm: 93%

## CCCCCCC(=O)Nc1cccc(CON=C(c2cccc(F)c2)c2nc(=O)o[nH]2)n1 [Example 70]
[1]
  chromatographic logP: 3.76
Phytophthora infestans
  pest or weed control at 500 ppm: 80%

## COc1cccc(C(=O)Nc2cccc(CON=C(c3cccc(F)c3)c3nc(=O)o[nH]3)n2)c1 [Example 64]
[1]
  chromatographic logP: 3.13
Phytophthora infestans
  pest or weed control at 500 ppm: 85%

## Cn1oc(=O)nc1C(=NOCc1cccc(NC(=O)OC2CCCCC2)n1)c1ccccc1 [Example 26]
[1]
  chromatographic logP: 3.81
Phytophthora infestans
  pest or weed control at 500 ppm: 99%

## COc1ccc(CC(=O)Nc2cccc(CON=C(c3cccc(OC)c3)c3nc(=O)o[nH]3)n2)cc1 [Example 48]
[1]
  chromatographic logP: 2.98
Phytophthora infestans
  pest or weed control at 500 ppm: 100%

## CCCCCOC(=O)Nc1cccc(CON=C(c2cccc(OC)c2)c2nc(=O)on2C)n1 [Example 102]
[1]
  chromatographic logP: 3.83
Phytophthora infestans
  pest or weed control at 500 ppm: 98%

## CC(Oc1ccccc1)C(=O)Nc1cccc(CON=C(c2cccc(F)c2)c2nc(=O)on2C)n1 (stereo not drawn) [Example 97]
[1]
  chromatographic logP: 3.44
Phytophthora infestans
  pest or weed control at 500 ppm: 70%

## Cc1cccc(C(=NOCc2cccc(NC(=O)CC(C)C)n2)c2nc(=O)on2C)c1 [Example 85]
[1]
  chromatographic logP: 3.13
Phytophthora infestans
  pest or weed control at 500 ppm: 100%

## Cc1cccc(C(=NOCc2cccc(NC(=O)OC(C)(C)C)n2)c2nc(=O)on2C)c1 [Example 21]
[1]
  chromatographic logP: 3.65
Phytophthora infestans
  pest or weed control at 500 ppm: 100%

## CCn1oc(=O)nc1/C(=N\OCc1cccc(NC(=O)OC(C)(C)C)n1)c1ccccc1 [Example 40, tert-butyl {6-[({[(Z)-(2-ethyl-5-oxo-2,5-dihydro-1,2,4-oxadiazol-3-yl)(phenyl)methylene]amino}oxy)methyl]pyridin-2-yl}carbamate]
[1]
  chromatographic logP: 3.58
Phytophthora infestans
  pest or weed control at 500 ppm: 73%

## CC#CCC(C)OC(=O)Nc1cccc(CON=C(c2ccccc2)c2nc(=O)on2C)n1 (stereo not drawn) [Example 151]
[1]
  chromatographic logP: 3.31

## CCCCCC(=O)Nc1cccc(CON=C(c2ccccc2)c2nc(=O)on2CC)n1 [Example 174]
[1]
  chromatographic logP: 3.52

## CN(O)C(=N)C(=NOCc1cccc(NC(=O)OC(C)(C)C)n1)c1cccc(F)c1F [Example V-10]
[1]; [2]
  chromatographic logP: 1.9

## COCCN(O)C(=N)C(=NOCc1cccc(NC(=O)OC(C)(C)C)n1)c1ccccc1 [Example V-07]
[1]; [2]
  chromatographic logP: 1.93

## Cn1oc(=O)nc1C(=NOCc1cccc(NC(=O)OCC2CC2)n1)c1ccccc1 [Example 180]
[1]
  chromatographic logP: 3.04

## COc1cccc(C(=NOCc2cccc(NC(=O)OC(C)(C)C)n2)C(=N)N(C)O)c1 [Example V-06]
[1]; [2]
  chromatographic logP: 1.86

## CC(C)CC(=O)Nc1cccc(CON=C(c2cccc(F)c2)c2nc(=O)on2C)n1 [Example 90]
[1]
  chromatographic logP: 2.92

## CCC(C)(C)C(=O)Nc1cccc(CON=C(c2ccccc2)c2nc(=O)on2C)n1 [Example 176]
[1]
  chromatographic logP: 3.17

## CCC#CCOC(=O)Nc1cccc(CON=C(c2ccccc2)c2nc(=O)on2C)n1 [Example 137]
[1]
  chromatographic logP: 3.21

## CC(C)CCOC(=O)Nc1cccc(CON=C(c2ccccc2)c2nc(=O)on2C)n1 [Example 161]
[1]
  chromatographic logP: 3.74

## Cn1oc(=O)nc1C(=NOCc1cccc(NC(=O)OCCCC2CC2)n1)c1ccccc1 [Example 181]
[1]
  chromatographic logP: 3.76

## CN(O)C(=N)/C(=N\OCc1cccc(Br)n1)c1ccccc1 [Example V-12, (2Z)-2-{[(6-bromopyridin-2-yl)methoxy]imino}-N-hydroxy-N-methyl-2-phenylethanimidamide]
[1]; [2]
  chromatographic logP: 1.39

## Cn1oc(=O)nc1C(=NOCc1cccc(NC(=O)c2ccc(F)cc2)n1)c1cccc(F)c1 [Example 92]
[1]
  chromatographic logP: 3.15

## Cn1oc(=O)nc1C(=NOCc1cccc(NC(=O)OCCCCl)n1)c1ccccc1 [Example 133]
[1]
  chromatographic logP: 3.02

## C#CCCOC(=O)Nc1cccc(CO/N=C(\C(=N)N(C)O)c2ccccc2)n1 [Example V-01, but-3-yn-1-yl (6-{[({(1Z)-2-[hydroxy(methyl)amino]-2-imino-1-phenylethylidene}amino)oxy]methyl}pyridin-2-yl)carbamate]
[1]; [2]
  chromatographic logP: 1.63

## COc1cccc(C(=NOCc2cccc(NC(=O)CCc3ccccc3)n2)c2nc(=O)on2C)c1 [Example 164]
[1]
  chromatographic logP: 3.27

## Cc1ccc(C(=O)Nc2cccc(CON=C(c3cccc(F)c3)c3nc(=O)o[nH]3)n2)cc1 [Example 77]
[1]
  chromatographic logP: 3.33

## COc1cccc(C(=NOCc2cccc(N)n2)c2nc(=O)on2C)c1 [Example 24]
[1]
  chromatographic logP: 1.03

## C#CCCCOC(=O)Nc1cccc(CON=C(c2ccccc2)c2nc(=O)on2C)n1 [Example 122]
[1]
  chromatographic logP: 2.94

## C=CCCCCOC(=O)Nc1cccc(CON=C(c2ccccc2)c2nc(=O)on2C)n1 [Example 123]
[1]
  chromatographic logP: 3.76

## Cn1oc(=O)nc1C(=NOCc1cccc(NC(=O)OCCCC2CCCCC2)n1)c1ccccc1 [Example 153]
[1]
  chromatographic logP: 5.06

## COc1cccc(C(=NOCc2cccc(NC(=O)OCCc3ccccc3)n2)c2nc(=O)on2C)c1 [Example 162]
[1]
  chromatographic logP: 3.61

## CN(O)C(=N)/C(=N\OCc1cccc(NC(=O)OC(C)(C)C)n1)c1ccccc1 [Example V-02, tert-butyl (6-{[({(1Z)-2-[hydroxy(methyl)amino]-2-imino-1-phenylethylidene}amino)oxy]methyl}pyridin-2-yl)carbamate]
[1]; [2]
  chromatographic logP: 1.81

## Cn1oc(=O)nc1C(=NOCc1cccc(N)n1)c1cccc(F)c1F [Example 192]
[1]
  chromatographic logP: 0.96

## Cn1oc(=O)nc1C(=NOCc1cccc(NC(=O)CCc2ccccc2)n1)c1ccccc1 [Example 119]
[1]
  chromatographic logP: 3.21

## CC#CCCOC(=O)Nc1cccc(CON=C(c2ccccc2)c2nc(=O)on2C)n1 [Example 156]
[1]
  chromatographic logP: 3

## CCCCOC(=O)Nc1cccc(CON=C(c2cccc(F)c2F)c2nc(=O)on2C)n1 [Example 188]
[1]
  chromatographic logP: 3.46

## Cc1cccc(C(=NOCc2cccc(NC(=O)Cc3ccccc3)n2)c2nc(=O)on2C)c1 [Example 81]
[1]
  chromatographic logP: 3.23

## COc1ccc(OC(=O)Nc2cccc(CON=C(c3ccccc3)c3nc(=O)on3C)n2)cc1 [Example 185]
[1]
  chromatographic logP: 3.15

Source: patent US9556158B2, “Fungicidal 3-[(pyridin-2-ylmethoxyimino)(phenyl)methyl]-2-substituted-1,2,4-oxadiazol-5(2H)-one derivatives” (BAYER INTELLECTUAL PROPERTY GMBH, priority 2011, dated 2017)
